Results reported in PubChem BioAssay (NCI).
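Results reflect a 48-hour exposure of cells in 96-well plates to compound at five concentrations. GI50 = concentration required for 50% inhibition of growth. At the TGI there is no net growth.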

Legend:
Experiment in all cases: NCI-60 cell line screen, 48 h
786-0 renal = system: 786-0 renal
A498 renal = system: A498 renal
A549 NSCLC = system: A549 NSCLC
ACHN renal = system: ACHN renal
BT-549 breast = system: BT-549 breast
CAKI-1 renal = system: CAKI-1 renal
CCRF-CEM leukemia = system: CCRF-CEM leukemia
COLO 205 colon = system: COLO 205 colon
DU-145 prostate = system: DU-145 prostate
EKVX NSCLC = system: EKVX NSCLC
HCC-2998 colon = system: HCC-2998 colon
HCT-116 colon = system: HCT-116 colon
HCT-15 colon = system: HCT-15 colon
HL-60(TB) leukemia = system: HL-60(TB) leukemia
HOP-62 NSCLC = system: HOP-62 NSCLC
HOP-92 NSCLC = system: HOP-92 NSCLC
HS 578T breast = system: HS 578T breast
HT29 colon = system: HT29 colon
IGROV1 ovarian = system: IGROV1 ovarian
K-562 leukemia = system: K-562 leukemia
KM12 colon = system: KM12 colon
LOX IMVI melanoma = system: LOX IMVI melanoma
M14 melanoma = system: M14 melanoma
MALME-3M melanoma = system: MALME-3M melanoma
MCF7 breast = system: MCF7 breast
MDA-MB-231 breast = system: MDA-MB-231 breast
MDA-MB-435 = system: MDA-MB-435
MOLT-4 leukemia = system: MOLT-4 leukemia
NCI-H226 lung = system: NCI-H226 lung
NCI-H23 lung = system: NCI-H23 lung
NCI-H460 lung = system: NCI-H460 lung
NCI-H522 lung = system: NCI-H522 lung
OVCAR-3 ovarian = system: OVCAR-3 ovarian
OVCAR-4 ovarian = system: OVCAR-4 ovarian
OVCAR-5 ovarian = system: OVCAR-5 ovarian
OVCAR-8 ovarian = system: OVCAR-8 ovarian
PC-3 prostate = system: PC-3 prostate
RPMI-8226 leukemia = system: RPMI-8226 leukemia
RXF 393 renal = system: RXF 393 renal
SF-268 CNS = system: SF-268 CNS
SF-295 CNS = system: SF-295 CNS
SF-539 CNS = system: SF-539 CNS
SK-MEL-2 melanoma = system: SK-MEL-2 melanoma
SK-MEL-28 melanoma = system: SK-MEL-28 melanoma
SK-MEL-5 melanoma = system: SK-MEL-5 melanoma
SK-OV-3 ovarian = system: SK-OV-3 ovarian
SN12C renal = system: SN12C renal
SNB-19 CNS = system: SNB-19 CNS
SNB-75 CNS = system: SNB-75 CNS
SR leukemia = system: SR leukemia
SW-620 colon = system: SW-620 colon
T-47D breast = system: T-47D breast
TK-10 renal = system: TK-10 renal
U251 CNS = system: U251 CNS
UACC-257 melanoma = system: UACC-257 melanoma
UACC-62 melanoma = system: UACC-62 melanoma
UO-31 renal = system: UO-31 renal

## O=c1ccc(N=Nc2ccccc2)ccc1Cl
786-0 renal
  GI50: 3.83 µM
  TGI: 13.6 µM
A498 renal
  GI50: > 100 µM
  TGI: > 100 µM
A549 NSCLC
  GI50: 17 µM
  TGI: 38.7 µM
ACHN renal
  GI50: 3.11 µM
  TGI: 10.2 µM
BT-549 breast
  GI50: 3.22 µM
  TGI: 9.77 µM
CAKI-1 renal
  GI50: 13 µM
  TGI: 25.8 µM
CCRF-CEM leukemia
  GI50: 1.39 µM
  TGI: 26.7 µM
COLO 205 colon
  GI50: 5.07 µM
  TGI: 18.4 µM
DU-145 prostate
  GI50: 15.5 µM
  TGI: 29 µM
EKVX NSCLC
  GI50: 11.5 µM
  TGI: 29.1 µM
HCC-2998 colon
  GI50: 12.2 µM
  TGI: 26.4 µM
HCT-116 colon
  GI50: 2.61 µM
  TGI: 9.49 µM
HCT-15 colon
  GI50: 2.53 µM
  TGI: 8.07 µM
HL-60(TB) leukemia
  GI50: 18.1 µM
  TGI: 87.1 µM
HOP-62 NSCLC
  GI50: 31.3 µM
  TGI: > 100 µM
HOP-92 NSCLC
  GI50: 13.9 µM
  TGI: 28.1 µM
HS 578T breast
  GI50: 21.4 µM
  TGI: 62.7 µM
HT29 colon
  GI50: 5.62 µM
  TGI: 19.2 µM
IGROV1 ovarian
  GI50: 13.8 µM
  TGI: 27.4 µM
K-562 leukemia
  GI50: 1 µM
  TGI: > 100 µM
KM12 colon
  GI50: 12.7 µM
  TGI: 32.4 µM
LOX IMVI melanoma
  GI50: 2.24 µM
  TGI: 6.74 µM
M14 melanoma
  GI50: 2.63 µM
  TGI: 12.7 µM
MALME-3M melanoma
  GI50: 3.57 µM
  TGI: 12.4 µM
MCF7 breast
  GI50: 3.16 µM
  TGI: 18 µM
MDA-MB-231 breast
  GI50: 9.01 µM
  TGI: 21.2 µM
MDA-MB-435
  GI50: 14.8 µM
  TGI: 29.6 µM
MOLT-4 leukemia
  GI50: 0.749 µM
  TGI: > 100 µM
NCI-H226 lung
  GI50: 19.6 µM
  TGI: 66.1 µM
NCI-H23 lung
  GI50: 6.25 µM
  TGI: 21.9 µM
NCI-H460 lung
  GI50: 15.4 µM
  TGI: 37.7 µM
NCI-H522 lung
  GI50: 1.8 µM
  TGI: 3.67 µM
OVCAR-3 ovarian
  GI50: 4.39 µM
  TGI: 15.6 µM
OVCAR-4 ovarian
  GI50: 12.8 µM
  TGI: 25.9 µM
OVCAR-5 ovarian
  GI50: 15.4 µM
  TGI: 29.3 µM
OVCAR-8 ovarian
  GI50: 3.49 µM
  TGI: 13.1 µM
PC-3 prostate
  GI50: 5.16 µM
  TGI: 18.7 µM
RPMI-8226 leukemia
  GI50: 3.76 µM
  TGI: 27.4 µM
RXF 393 renal
  GI50: 8.19 µM
  TGI: 22.1 µM
SF-268 CNS
  GI50: 18.8 µM
  TGI: 43.5 µM
SF-295 CNS
  GI50: 18.1 µM
  TGI: 46.6 µM
SF-539 CNS
  GI50: 5.9 µM
  TGI: 18.3 µM
SK-MEL-2 melanoma
  GI50: 13.9 µM
  TGI: 29.8 µM
SK-MEL-28 melanoma
  GI50: 14.5 µM
  TGI: 27.9 µM
SK-MEL-5 melanoma
  GI50: 15.7 µM
  TGI: 31.7 µM
SK-OV-3 ovarian
  GI50: 48 µM
  TGI: > 100 µM
SN12C renal
  GI50: 12.9 µM
  TGI: 25.7 µM
SNB-19 CNS
  GI50: 26.2 µM
  TGI: 91.4 µM
SNB-75 CNS
  GI50: 15.9 µM
  TGI: 92.3 µM
SR leukemia
  GI50: 1.73 µM
  TGI: > 100 µM
SW-620 colon
  GI50: 3.14 µM
  TGI: 12.8 µM
T-47D breast
  GI50: 3.14 µM
  TGI: 26.4 µM
TK-10 renal
  GI50: 13.7 µM
  TGI: 26.6 µM
U251 CNS
  GI50: 2.78 µM
  TGI: 9.29 µM
UACC-257 melanoma
  GI50: 11.5 µM
  TGI: 24 µM
UACC-62 melanoma
  GI50: 12.7 µM
  TGI: 25.6 µM
UO-31 renal
  GI50: 7.39 µM
  TGI: 20.7 µM
